Results published in patent publication US20230024108A1, “ADENOSINE A2A RECEPTOR ANTAGONISTS” (Teon Therapeutics, Inc., priority 2019, published 2023).
Counter-ions that a name gives are not always drawn.

Key:
A1AdoR = target: T1, A1AdoR (Homo sapiens, UniProt P30542); assay: Adenosine receptor binding assay, A1 ([3H]-DPCPX); settings: ratio A1 vs A2A binding
T1 construct: purchased PerkinElmer ES-010-M400UA
T1 sequence (P30542 1-326): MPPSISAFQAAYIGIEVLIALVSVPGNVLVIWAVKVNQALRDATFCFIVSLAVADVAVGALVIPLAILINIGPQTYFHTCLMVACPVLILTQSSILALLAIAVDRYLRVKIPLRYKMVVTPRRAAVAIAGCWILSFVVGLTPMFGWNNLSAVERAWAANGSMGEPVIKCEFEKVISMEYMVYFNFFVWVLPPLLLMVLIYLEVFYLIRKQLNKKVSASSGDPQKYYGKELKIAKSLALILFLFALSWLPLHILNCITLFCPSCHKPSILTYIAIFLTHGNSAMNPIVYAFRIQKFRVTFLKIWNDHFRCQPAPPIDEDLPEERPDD
Method: (§1) Membranes prepared from CHO-K1 cells stably expressing Human AiAdoR (ES-010-M400UA), HEK-293 cells stably expressing human A2A AdoR (RBHA2AM400UA), HEK-293 cells stably expressing human A2B AdoR (ES-013-M400UA) and CHO-K1 cells stably expressing Human A3 AdoR (ES-012-M400UA) were purchased from PerkinElmer (Waltham, Mass., USA) and stored at −80° C. until use. Binding assays are performed using the radioligands. The final concentrations are as follows: [3H]-DPCPX (PerkinElmer, NET974001MC) at 1 nM for A1AdoR; [^3H]-CGS-21680 (PerkinElmer, NET1021250UC) at 6 nM for A2AAdoR, [3H]-DPCPX (PerkinElmer, NET974001MC) at 8 nM for A2BAdoR; [^3H]-HEMADO (ARC, Cat: ART1456) at 1 nM for A3AdoR. Testing compounds are diluted with DMSO to make 8-point 4-fold serial dilution. Nonspecific binding (Low control: LC) and total binding (High control: HC) are determined in the presence or absence of saturated cold ligand. Specific binding is calculated by subtracting nonspecific binding from total binding. All assays are performed in a final volume of 200 μl containing 1 μl of the test compound in DMSO, 100 μl of membrane preparation, and 99 μl of the radioligand in assay buffer (A1AdoR: 25 mM HEPES pH 7.4, 5 mM MgCl2, 1 mM CaCl2), 100 mM NaCl; A2AAdoR: 50 mM Tris HCl pH 7.4, 10 mM MgCl2, 1 mM EDTA; A2BAdoR: 50 mM HEPES pH 7.0, 5 mM MgCl2, 1 mM EDTA; A3AdoR: 25 HEPES pH 7.4, 10 mM MgCl2, 1 mM CaCl2), 0.5% BSA). The incubation is performed at room temperature with shaking at 300 rpm for 1 hour for A1AdoR, A2BAdoR and A3AdoR and 2 hours for A2AAdoR. After the incubation, the assay mixture is filtered through 96 GF/C filter plates (Perkin Elmer #6005174) using Perkin Elmer Filtermate Harvester, and then washed four times with ice-cold washing buffer (A1AdoR: 25 mM HEPES pH 7.4, 5 mM MgCl2, 1 mM CaCl2), 100 mM NaCl; A2AAdoR: 50 mM Tris HCl pH 7.4, 154 mM NaCl; A2BAdoR: 50 mM HEPES pH 6.5, 5 mM MgCl2, 1 mM EDTA, 0.2% BSA; A3AdoR: 50 mM Tris HCl pH 7.4). The filters are dried for 1 hour at 50° C. and [^3H] trapped on filter counted for radioactivity in Perkin Elmer Microscint 20 cocktail (#6013329) using Perkin Elmer MicroBeta2 Reader. The results are expressed as a percent inhibition of the control radioligand specific binding calculated using the following equation: % Inhibition=(1−(Assay well-Average_LC)/(Average_HC−Average_LC))×100%. Data are analyzed and IC50 is calculated using GraphPad Prism 5 and the model “log(inhibitor) vs. response—Variable slope”. The binding affinity of the compounds is determined by using the Cheng and Prusoff equation Ki=IC50/(1+[radioligand]/Kd).

human A2A AdoR = target: T2, human A2A AdoR (Homo sapiens, UniProt P29274); assay: Adenosine receptor binding assay, A2A ([3H]-CGS-21680); settings: membranes of HEK-293 cells expressing human A2A AdoR; read-out: hA2A IC50
T2 construct: purchased PerkinElmer RBHA2AM400UA
T2 sequence (P29274 whole entry): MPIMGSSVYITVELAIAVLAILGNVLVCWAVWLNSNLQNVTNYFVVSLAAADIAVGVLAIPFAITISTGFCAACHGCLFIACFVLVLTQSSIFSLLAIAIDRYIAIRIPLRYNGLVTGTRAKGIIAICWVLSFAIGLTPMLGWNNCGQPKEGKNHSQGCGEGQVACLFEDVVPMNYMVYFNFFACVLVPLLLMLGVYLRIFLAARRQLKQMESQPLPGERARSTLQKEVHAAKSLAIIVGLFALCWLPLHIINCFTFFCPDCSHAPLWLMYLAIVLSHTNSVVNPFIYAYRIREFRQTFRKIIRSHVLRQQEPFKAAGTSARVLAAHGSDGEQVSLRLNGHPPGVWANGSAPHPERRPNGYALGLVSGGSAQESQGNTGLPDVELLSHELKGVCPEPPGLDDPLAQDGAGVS
Method: as §1

Structure (SMILES) | IC50 (human A2A AdoR) | A1/A2A Selectivity (A1AdoR)
CC#Cc1nc2c3ncn(CCN4CCN(c5cc(-n6cccn6)ccc5F)CC4)c3nc(N)n2n1 | ≤ 20 nM | a (greater than 1000)
Cc1cc(N2CCN(CCn3c(C(N)=O)c(Cl)c4c3nc(N)n3nc(-c5ccccn5)nc43)CC2)c(F)cn1 [5-amino-9-chloro-7-(2-(4-(5-fluoro-2-methylpyridin-4-yl)piperazin-1-yl)ethyl)-2-(pyridin-2-yl)-7H-pyrrolo[3,2-e][1,2,4]triazolo[1,5-c]pyrimidine-8-carboxamide] | ≤ 20 nM | c (greater than 0 but less than or equal to 100)
CC#Cc1nc2c3ncn(CCN4CCN(c5ccc(OC(C)(C)C(=O)O)cc5)CC4)c3nc(N)n2n1 [2-(4-(4-(2-(5-amino-8-(prop-1-yn-1-yl)-3H-[1,2,4]triazolo[5,1-i]purin-3-yl)ethyl)piperazin-1-yl)phenoxy)-2-methylpropanoic acid] | 20 to 100 nM | b (greater than 100 but less than or equal to 1000)
Cc1c(C(N)=O)n(CCN2CCN(c3ccc(F)cc3F)CC2)c2nc(N)n3nc(-c4ccccn4)nc3c12 [5-amino-7-(2-(4-(2,4-difluorophenyl)piperazin-1-yl)ethyl)-9-methyl-2-(pyridin-2-yl)-7H-pyrrolo[3,2-e][1,2,4]triazolo[1,5-c]pyrimidine-8-carboxamide] | ≤ 20 nM | b (greater than 100 but less than or equal to 1000)
Nc1nc2c(ncn2CCN2CCc3ncc(C4COC4)cc3C2)c2nc(-c3ccccn3)nn12 [3-(2-(3-(oxetan-3-yl)-7,8-dihydro-1,6-naphthyridin-6(5H)-yl)ethyl)-8-(pyridin-2-yl)-3H-[1,2,4]triazolo[5,1-i]purin-5-amine] | 20 to 100 nM | c (greater than 0 but less than or equal to 100)
Cc1cnc2c(c1)CN(CCn1nc(Cl)c3c1nc(N)n1nc(-c4ccccn4)nc31)CC2 [9-chloro-7-(2-(3-methyl-7,8-dihydro-1,6-naphthyridin-6(5H)-yl)ethyl)-2-(pyridin-2-yl)-7H-pyrazolo[4,3-e][1,2,4]triazolo[1,5-c]pyrimidin-5-amine] | ≤ 20 nM | c (greater than 0 but less than or equal to 100)

Continued, in another order:

IC50 (human A2A AdoR) | Structure (SMILES) | A1/A2A Selectivity (A1AdoR)
≤ 20 nM | Cc1c(C(N)=O)n(CCN2CCN(c3ccc(C#N)cc3F)CC2)c2nc(N)n3nc(-c4ccccn4)nc3c12 [5-amino-7-(2-(4-(4-cyano-2-fluorophenyl)piperazin-1-yl)ethyl)-9-methyl-2-(pyridin-2-yl)-7H-pyrrolo[3,2-e][1,2,4]triazolo[1,5-c]pyrimidine-8-carboxamide] | b (greater than 100 but less than or equal to 1000)
≤ 20 nM | Cc1c(C(=O)O)n(CCN2CCN(c3ccc(F)cc3F)CC2)c2nc(N)n3nc(-c4ccccn4)nc3c12 [5-amino-7-(2-(4-(2,4-difluorophenyl)piperazin-1-yl)ethyl)-9-methyl-2-(pyridin-2-yl)-7H-pyrrolo[3,2-e][1,2,4]triazolo[1,5-c]pyrimidine-8-carboxylic acid] | b (greater than 100 but less than or equal to 1000)
≤ 20 nM | Nc1nc2c(c(Cl)c(C(=O)O)n2CCN2CCN(c3cc(-c4ncco4)ccc3F)CC2)c2nc(-c3ccccn3)nn12 [5-amino-9-chloro-7-(2-(4-(2-fluoro-5-(oxazol-2-yl)phenyl)piperazin-1-yl)ethyl)-2-(pyridin-2-yl)-7H-pyrrolo[3,2-e][1,2,4]triazolo[1,5-c]pyrimidine-8-carboxylic acid] | b (greater than 100 but less than or equal to 1000)
≤ 20 nM | CC#Cc1nc2c3cc(C#N)n(CCN4CCN(c5ccc6onc(C)c6c5F)CC4)c3nc(N)n2n1 | a (greater than 1000)
≤ 20 nM | Cc1noc2cc(F)c(N3CCN(CCn4c(OC=O)c(Cl)c5c4nc(N)n4nc(-c6ccccn6)nc54)CC3)cc12 [5-amino-9-chloro-7-(2-(4-(6-fluoro-3-methylbenzo[d]isoxazol-5-yl)piperazin-1-yl)ethyl)-2-(pyridin-2-yl)-7H-pyrrolo[3,2-e][1,2,4]triazolo[1,5-c]pyrimidin-8-yl formate] | a (greater than 1000)
